These results are taken from patent US8586579B2, “Anellated pyridine compounds” (Hoffmann-La Roche Inc., priority 2010, dated 2013).

One may read the melting point as the temperature, or range, at which the solid turns liquid. Broadly, the Ki is a measure of affinity in units of concentration, obtained from inhibition or displacement.

The target in one data set is human D2 receptor (Homo sapiens (Human), UniProt P14416). In words: Radioligand binding assay, [3H]-spiperone, human D2 receptor. The settings on record: membranes of HEK293 EBNA cells expressing human D2; 0.7 nM [3H]-spiperone. The essentials:
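Membranes from HEK293 EBNA cells transiently expressing human D2 were incubated 1 h at RT with ~0.7 nM [3H]-spiperone and ten compound concentrations (10 μM–0.1 nM) in Tris buffer with NaCl, MgCl2, KCl, CaCl2, EDTA, pH 7.4.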

The next data set has as its target human D3 receptor (Homo sapiens (Human), UniProt P35462). Description: Radioligand binding assay, [3H]-spiperone, human D3 receptor. As to conditions: membranes of HEK293 EBNA cells expressing human D3; 0.5 nM [3H]-spiperone. The essentials: (§1)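 Membranes from transiently transfected HEK293 EBNA cells were incubated 1 h at RT with ten compound concentrations (10 μM-0.1 nM) and radioligand: 0.5 nM [3H]-spiperone for D3 (Tris/NaCl/Mg/Ca buffer, pH 7.4) or 1.1 nM [3H]-ketanserin for 5-HT2A (Tris/MgCl2/EGTA, pH 7.4).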

The target of a further data set is human 5-HT2A receptor (Homo sapiens (Human), UniProt P28223). In words: Radioligand binding assay, [3H]-ketanserin, human 5-HT2A receptor. The method, boiled down:
as §1

Where [1] appears, read: membranes of HEK293 EBNA cells expressing human 5-HT2A, 1.1 nM [3H]-ketanserin.

Where two headings read alike, the source gives them in different places.

Sequence of human D2 receptor (P14416 whole entry): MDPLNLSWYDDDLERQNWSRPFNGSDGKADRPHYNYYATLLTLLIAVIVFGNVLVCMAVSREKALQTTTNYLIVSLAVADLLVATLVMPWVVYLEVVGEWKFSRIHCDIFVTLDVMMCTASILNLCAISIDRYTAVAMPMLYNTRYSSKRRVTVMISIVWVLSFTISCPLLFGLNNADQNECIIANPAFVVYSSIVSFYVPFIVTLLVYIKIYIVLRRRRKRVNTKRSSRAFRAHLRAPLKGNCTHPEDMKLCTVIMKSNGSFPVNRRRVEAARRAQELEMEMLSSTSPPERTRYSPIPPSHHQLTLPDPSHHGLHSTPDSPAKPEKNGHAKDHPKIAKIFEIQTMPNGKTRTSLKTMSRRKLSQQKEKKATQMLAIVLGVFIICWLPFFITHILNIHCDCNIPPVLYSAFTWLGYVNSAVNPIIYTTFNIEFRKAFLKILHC
Sequence of human 5-HT2A receptor (P28223 whole entry): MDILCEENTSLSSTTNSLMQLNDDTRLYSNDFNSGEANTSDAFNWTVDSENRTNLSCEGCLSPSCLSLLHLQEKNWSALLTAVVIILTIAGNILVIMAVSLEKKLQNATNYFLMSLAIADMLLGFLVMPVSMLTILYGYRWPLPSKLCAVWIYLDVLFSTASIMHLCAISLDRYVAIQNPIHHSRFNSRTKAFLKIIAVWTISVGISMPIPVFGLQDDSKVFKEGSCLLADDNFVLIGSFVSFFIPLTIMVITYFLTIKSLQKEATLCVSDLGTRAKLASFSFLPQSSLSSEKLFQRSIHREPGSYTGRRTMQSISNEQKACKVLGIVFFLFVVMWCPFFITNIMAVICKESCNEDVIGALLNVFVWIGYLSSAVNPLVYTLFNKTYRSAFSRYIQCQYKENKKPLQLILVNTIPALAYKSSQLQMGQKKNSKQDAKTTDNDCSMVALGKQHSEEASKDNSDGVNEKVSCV
Sequence of human D3 receptor (P35462 whole entry): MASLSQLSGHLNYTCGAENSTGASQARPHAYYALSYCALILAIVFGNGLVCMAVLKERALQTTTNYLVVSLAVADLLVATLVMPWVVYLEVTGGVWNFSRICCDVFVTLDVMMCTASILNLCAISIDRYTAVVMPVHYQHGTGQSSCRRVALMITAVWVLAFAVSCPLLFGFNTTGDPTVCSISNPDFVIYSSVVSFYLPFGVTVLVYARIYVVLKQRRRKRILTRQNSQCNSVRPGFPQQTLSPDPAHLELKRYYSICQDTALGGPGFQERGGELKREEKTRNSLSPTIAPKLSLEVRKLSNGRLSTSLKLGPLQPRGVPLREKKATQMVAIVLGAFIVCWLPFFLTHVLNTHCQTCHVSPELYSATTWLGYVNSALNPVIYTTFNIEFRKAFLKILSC

Take `CC(C)=CC(=O)N[C@H]1CC[C@H](CCN2CCN(c3nccc4c3CCO4)CC2)CC1` [Example 80, 3-Methyl-but-2-enoic acid trans-(4-{2-[4-(2,3-dihydro-furo[3,2-c]pyridin-4-yl)-piperazin-1-yl]-ethyl}-cyclohexyl)-amide]: the melting point was determined as 164.5 °C. Moreover, the Ki at human D2 receptor stood at 198 nM. Also, on human D3 receptor, the Ki was found to be 15.4 nM. In addition, at human 5-HT2A receptor (setting [1]), the Ki was determined as 16.2 nM.

In turn, `C/C=C/CC(=O)N[C@H]1CC[C@H](CCN2CCN(c3nccc4c3CCO4)CC2)CC1` [Example 81, (E)-Pent-3-enoic acid trans-(4-{2-[4-(2,3-dihydro-furo[3,2-c]pyridin-4-yl)-piperazin-1-yl]-ethyl}-cyclohexyl)-amide] had a melting point of 175.5 °C. The Ki on human D2 receptor is 945 nM. The Ki on human D3 receptor is 12.9 nM. At human 5-HT2A receptor (setting [1]), the inhibition constant Ki amounted to 22.8 nM.

`CC#CC(=O)N[C@H]1CC[C@H](CCN2CCN(c3nccc4c3CCO4)CC2)CC1` [Example 82, But-2-ynoic acid trans-(4-{2-[4-(2,3-dihydro-furo[3,2-c]pyridin-4-yl)-piperazin-1-yl]-ethyl}-cyclohexyl)-amide]: the melting point was determined as 193 °C. Also, the Ki at human D2 receptor was 426 nM. For the same compound, the Ki on human D3 receptor stood at 17.2 nM. Moreover, the Ki at human 5-HT2A receptor (setting [1]) was determined as 12.2 nM.

`O=CN[C@H]1CC[C@H](CCN2CCN(c3nccc4c3CCO4)CC2)CC1` [Example 83, trans-N-(4-{2-[4-(2,3-Dihydro-furo[3,2-c]pyridin-4-yl)-piperazin-1-yl]-ethyl}-cyclohexyl)-formamide] gave a melting point of 170.5 °C. Besides, the Ki on human D2 receptor stood at 837 nM. Moreover, the Ki at human D3 receptor worked out at 28 nM. The Ki on human 5-HT2A receptor (setting [1]) worked out at 23.5 nM.

Take `Cc1cc(CC(=O)N[C@H]2CC[C@H](CCN3CCN(c4nccc5c4CCO5)CC3)CC2)on1` [Example 84, trans-N-(4-{2-[4-(2,3-Dihydro-furo[3,2-c]pyridin-4-yl)-piperazin-1-yl]-ethyl}-cyclohexyl)-2-(3-methyl-isoxazol-5-yl)-acetamide]: the melting point amounted to 172.5 °C. For the same compound, the Ki on human D2 receptor turned out to be 1300 nM. In addition, at human D3 receptor, the Ki was determined as 4.01 nM. For the same compound, on human 5-HT2A receptor (setting [1]), the Ki came out at 15.2 nM.

In turn, `Cc1cc(C(=O)N[C@H]2CC[C@H](CCN3CCN(c4nccc5c4CCO5)CC3)CC2)on1` [Example 85, 3-Methyl-isoxazole-5-carboxylic acid trans-(4-{2-[4-(2,3-dihydro-furo[3,2-c]pyridin-4-yl)-piperazin-1-yl]-ethyl}-cyclohexyl)-amide] yielded a melting point of 218 °C. On human D2 receptor, the Ki turned out to be 397 nM. At human D3 receptor, the Ki is 31.1 nM. Moreover, the Ki at human 5-HT2A receptor came out at 15.7 nM.

Regarding `CN(C)C(=O)CCC(=O)N[C@H]1CC[C@H](CCN2CCN(c3nccc4c3CCO4)CC2)CC1` [Example 86, trans-N-(4-{2-[4-(2,3-Dihydro-furo[3,2-c]pyridin-4-yl)-piperazin-1-yl]-ethyl}-cyclohexyl)-N′,N′-dimethyl-succinamide], the melting point worked out at 188 °C. Moreover, on human D2 receptor, the inhibitory constant (Ki) came out at 2560 nM. Further, on human D3 receptor, the inhibition constant Ki turned out to be 37.6 nM. The Ki on human 5-HT2A receptor (setting [1]) was determined as 23.9 nM.

On to `CC(C)(O)CC(=O)N[C@H]1CC[C@H](CCN2CCN(c3nccc4c3CCO4)CC2)CC1` [Example 87, trans-N-(4-{2-[4-(2,3-Dihydro-furo[3,2-c]pyridin-4-yl)-piperazin-1-yl]-ethyl}-cyclohexyl)-3-hydroxy-3-methyl-butyramide], for which the melting point was 208 °C. Also, the Ki on human D2 receptor came to 1000 nM. The Ki on human D3 receptor was found to be 21.6 nM. On human 5-HT2A receptor (setting [1]), the Ki amounted to 25 nM.

`O=C(C[C@@H](O)C(F)(F)F)N[C@H]1CC[C@H](CCN2CCN(c3nccc4c3CCO4)CC2)CC1` [Example 88, trans-(R)—N-(4-{2-[4-(2,3-Dihydro-furo[3,2-c]pyridin-4-yl)-piperazin-1-yl]-ethyl}-cyclohexyl)-4,4,4-trifluoro-3-hydroxy-butyramide] returned a melting point of 207 °C. Also, the Ki on human D2 receptor is 732 nM. The Ki at human D3 receptor came to 19.7 nM. For the same compound, the Ki at human 5-HT2A receptor worked out at 33.1 nM.

For the compound `CC[C@H](O)CC(=O)N[C@H]1CC[C@H](CCN2CCN(c3nccc4c3CCO4)CC2)CC1` [Example 89, (S)-3-Hydroxy-pentanoic acid trans-(4-{2-[4-(2,3-dihydro-furo[3,2-c]pyridin-4-yl)-piperazin-1-yl]-ethyl}-cyclohexyl)-amide], the melting point came to 158 °C. Besides, on human D2 receptor, the Ki turned out to be 887 nM. Besides, the Ki on human D3 receptor was found to be 20 nM. Further, at human 5-HT2A receptor, the Ki turned out to be 30 nM.

The compound `CO[C@H]1CC[C@H](CC(=O)N[C@H]2CC[C@H](CCN3CCN(c4nccc5c4CCO5)CC3)CC2)C1` [Example 90, trans-N-(4-{2-[4-(2,3-Dihydro-furo[3,2-c]pyridin-4-yl)-piperazin-1-yl]-ethyl}-cyclohexyl)-2-((1S,3S)-3-methoxy-cyclopentyl)-acetamide] gave a melting point of 241 °C. Further, on human D2 receptor, the Ki is 1290 nM. The Ki at human D3 receptor worked out at 19.4 nM. In addition, on human 5-HT2A receptor (setting [1]), the Ki came to 22.4 nM.

As for `CCCC(=O)N[C@H]1CC[C@H](CCN2CCN(c3nccc4c3CCO4)CC2)CC1` [Example 92, trans-N-(4-{2-[4-(2,3-Dihydro-furo[3,2-c]pyridin-4-yl)-piperazin-1-yl]-ethyl}-cyclohexyl)-butyramide], the melting point is 191 °C. Also, the Ki on human D2 receptor is 828 nM. Besides, the Ki on human D3 receptor came out at 15.4 nM. Besides, the inhibition constant Ki on human 5-HT2A receptor (setting [1]) came to 23.1 nM.

In turn, `CC(C)CCC(=O)N[C@H]1CC[C@H](CCN2CCN(c3nccc4c3CCO4)CC2)CC1` [Example 93, 4-Methyl-pentanoic acid trans-(4-{2-[4-(2,3-dihydro-furo[3,2-c]pyridin-4-yl)-piperazin-1-yl]-ethyl}-cyclohexyl)-amide] had a melting point of 182.5 °C. For the same compound, the Ki on human D2 receptor is 1280 nM. For the same compound, at human D3 receptor, the Ki came out at 22.7 nM. In addition, on human 5-HT2A receptor (setting [1]), the Ki stood at 24.6 nM.

`CCCCC(=O)N[C@H]1CC[C@H](CCN2CCN(c3nccc4c3CCO4)CC2)CC1` [Example 94, Pentanoic acid trans-(4-{2-[4-(2,3-dihydro-furo[3,2-c]pyridin-4-yl)-piperazin-1-yl]-ethyl}-cyclohexyl)-amide] displayed a melting point of 180.5 °C. Moreover, on human D2 receptor, the Ki worked out at 1140 nM. The Ki on human D3 receptor was 19.2 nM. Also, the Ki at human 5-HT2A receptor (setting [1]) was 24.7 nM.

`O=C(CCC(F)(F)F)N[C@H]1CC[C@H](CCN2CCN(c3nccc4c3CCO4)CC2)CC1` [Example 95, trans-N-(4-{2-[4-(2,3-Dihydro-furo[3,2-c]pyridin-4-yl)-piperazin-1-yl]-ethyl}-cyclohexyl)-4,4,4-trifluoro-butyramide] gave a melting point of 195.5 °C. Further, the Ki on human D2 receptor is 1250 nM. Further, on human D3 receptor, the Ki was found to be 20 nM. In addition, at human 5-HT2A receptor, the Ki was determined as 29.6 nM.

With `CC(=O)N[C@H]1CC[C@H](CCN2CCN(c3nc(C)cc4occc34)CC2)CC1` [Example 96, trans-N-(4-{2-[4-(6-Methyl-furo[3,2-c]pyridin-4-yl)-piperazin-1-yl]-ethyl}-cyclohexyl)-acetamide], the melting point turned out to be 207.5 °C. On human D2 receptor, the Ki worked out at 249 nM. In addition, the Ki at human D3 receptor is 4.64 nM. At human 5-HT2A receptor (setting [1]), the Ki was found to be 75.2 nM.
